Measurements: ChEMBL document CHEMBL1153980, “Synthesis and anti-inflammatory activity of the major metabolites of imrecoxib” (Bioorg Med Chem Lett, 2009)

Columns and labels:
Rattus norvegicus [1] = experiment: Antiinflammatory activity in rat assessed as inhibition of carrageenan induced paw edema at 10 mg/kg after 1 hr relative to control; type: functional
Rattus norvegicus [2] = experiment: Antiinflammatory activity in rat assessed as inhibition of carrageenan induced paw edema at 10 mg/kg after 2 hrs relative to control; type: functional
Rattus norvegicus [3] = experiment: Antiinflammatory activity in rat assessed as inhibition of carrageenan induced paw edema at 10 mg/kg after 3 hrs relative to control; type: functional
Rattus norvegicus [4] = experiment: Antiinflammatory activity in rat assessed as inhibition of carrageenan induced paw edema at 10 mg/kg after 4 hrs relative to control; type: functional
[5] = target: T1, Prostaglandin G/H synthase 1 (Mus musculus, UniProt P22437); experiment: Inhibition of COX1 in mouse peritoneal macrophages
T1 sequence (P22437 whole entry): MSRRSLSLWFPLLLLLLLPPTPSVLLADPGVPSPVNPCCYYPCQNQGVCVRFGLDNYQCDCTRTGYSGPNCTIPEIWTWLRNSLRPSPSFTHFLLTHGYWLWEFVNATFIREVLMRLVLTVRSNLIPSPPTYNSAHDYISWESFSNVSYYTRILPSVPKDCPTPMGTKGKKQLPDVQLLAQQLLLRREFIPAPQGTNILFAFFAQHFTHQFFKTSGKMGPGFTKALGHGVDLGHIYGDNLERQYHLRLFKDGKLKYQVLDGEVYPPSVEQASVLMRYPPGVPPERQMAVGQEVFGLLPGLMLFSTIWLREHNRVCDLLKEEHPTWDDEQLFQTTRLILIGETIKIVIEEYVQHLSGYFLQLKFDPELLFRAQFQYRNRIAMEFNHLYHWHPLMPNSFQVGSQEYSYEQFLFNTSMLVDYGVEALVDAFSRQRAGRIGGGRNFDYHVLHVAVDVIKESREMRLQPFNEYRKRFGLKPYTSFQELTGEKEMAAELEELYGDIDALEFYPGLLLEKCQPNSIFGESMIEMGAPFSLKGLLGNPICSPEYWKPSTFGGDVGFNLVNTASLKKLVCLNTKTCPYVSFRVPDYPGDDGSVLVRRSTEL

[6] = target: T2, Prostaglandin G/H synthase 2 (Mus musculus, UniProt Q05769); experiment: Inhibition of COX2 in mouse peritoneal macrophages
T2 sequence (Q05769 whole entry): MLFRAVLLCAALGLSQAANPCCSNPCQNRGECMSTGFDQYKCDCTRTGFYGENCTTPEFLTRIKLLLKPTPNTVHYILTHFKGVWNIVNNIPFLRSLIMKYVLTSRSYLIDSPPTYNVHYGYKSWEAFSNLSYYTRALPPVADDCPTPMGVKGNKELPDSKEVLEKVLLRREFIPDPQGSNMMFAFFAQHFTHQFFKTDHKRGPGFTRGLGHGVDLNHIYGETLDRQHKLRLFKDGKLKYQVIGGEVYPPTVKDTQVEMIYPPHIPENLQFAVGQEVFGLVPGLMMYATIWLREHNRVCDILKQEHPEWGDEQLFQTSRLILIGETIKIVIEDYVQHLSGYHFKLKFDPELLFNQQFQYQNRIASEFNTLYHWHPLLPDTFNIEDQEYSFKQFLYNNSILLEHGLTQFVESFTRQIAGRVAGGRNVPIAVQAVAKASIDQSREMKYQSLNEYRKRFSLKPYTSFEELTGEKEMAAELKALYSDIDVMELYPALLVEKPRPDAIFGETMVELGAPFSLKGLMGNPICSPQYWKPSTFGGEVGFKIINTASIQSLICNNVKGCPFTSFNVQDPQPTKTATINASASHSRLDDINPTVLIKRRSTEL

Mus musculus = species: Mus musculus; experiment: Selectivity index, ratio of IC50 for COX1 to IC50 for COX2 in mouse peritoneal macrophages
[7] = target: Prostaglandin G/H synthase 1 (Mus musculus, UniProt P22437); experiment: Inhibition of calcimycin-induced COX1 activity

| IC50 [5] | IC50 [6] | Ratio IC50 (Mus musculus) | IC50 [7] | SMILES | inhibition in vivo at 10 mg/kg (Rattus norvegicus [1]) | inhibition in vivo at 10 mg/kg (Rattus norvegicus [2]) | inhibition in vivo at 10 mg/kg (Rattus norvegicus [3]) | inhibition in vivo at 10 mg/kg (Rattus norvegicus [4]) |
| --- | --- | --- | --- | --- | --- | --- | --- | --- |
|  |  |  |  | Cc1ccc(-c2cc(C(F)(F)F)nn2-c2ccc(S(N)(=O)=O)cc2)cc1 [CELECOXIB] | 23.5% | 36.6% | 44.7% | 49.3% |
| 115 nM | 18 nM | 6.4 |  | CCCN1CC(c2ccc(S(C)(=O)=O)cc2)=C(c2ccc(C)cc2)C1=O [IMRECOXIB] | 31.3% | 39.5% | 50.4% | 50.4% |
| 87 nM | 14 nM | 6.2 |  | CCCN1CC(c2ccc(S(C)(=O)=O)cc2)=C(c2ccc(CO)cc2)C1=O | 26.5% | 46% | 56.1% | 63.9% |
|  | 410 nM | 6.8 | 2780 nM | CCCN1CC(c2ccc(S(C)(=O)=O)cc2)=C(c2ccc(C(=O)O)cc2)C1=O | 45.4% | 51.9% | 55.5% | 65.9% |
